The nature of data set [1]: Dimer/polymer formation in solution (overnight standing). The format is physicochemical. As to conditions: aqueous solution, 4-5 mg/ml, overnight (14-16 hours), room temperature. As for the experimental part: (ii) Dimer/polymer Formation in Solution
An aqueous solution of CB7646 and trimelamol in 4ml aliquots at a concentration of 4-5 mg/ml was left to stand overnight (14-16 hours) at room temperature.

A further data set concerns PC6 murine plasmacytoma. Kind of data set: MTT cytotoxicity assay, PC6. The format is cell-based. As to conditions: Mus musculus, continual drug exposure, parenthesis = standard deviation or ± values. On the procedure: (§1) The cytotoxicity of CB7646 and CB7683 was compared with trimelamol against mammalian tumour cell lines using the MTT assay. This assay is based upon the selective ability of living but not dead cells to reduce the tetrazolium salt MTT (3-[4,5-dimethylthiazol-2-yl]-25-diphenyl tetrazolium bromide) to purple formazan (Mosmann et al, 1983, J. Immun. Methods 65; 55-63; Carmichael et al (1987) Cancer Res. 47; 936-942). Cell lines were grown in culture with continual drug exposure. The IC50 values (in μm) of the compounds (i.e. concentration giving 50% inhibition of cell growth as compared with untreated control) were determined, and are shown in Table 2. Figures in parenthesis refer to standard deviation or ± values for 2 or more measurements.
PC6 murine plasmacytoma
Background: Formazan colour is commonly taken as a measure of viable cells.

The subject of data set [2] is Walker 256 rat mammary carcinoma. Kind of data set: MTT cytotoxicity assay, Walker 256. The format is cell-based. As for the experimental part:
(§2) The cytotoxicity of CB7646 and CB7683 was compared with trimelamol against mammalian tumour cell lines using the MTT assay. […] Cell lines were grown in culture with continual drug exposure. […] Figures in parenthesis refer to standard deviation or ± values for 2 or more measurements.

For data set [3], the system named is H69 human small cell lung cancer. The experiment in a line: MTT cytotoxicity assay, H69. The class given is cell-based. As for the experimental part: as §2
The test system of data set [4] is CH1 human epithelial ovarian cancer. Kind of data set: MTT cytotoxicity assay, CH1. The class given is cell-based. As to conditions: continual drug exposure, parenthesis = standard deviation or ± values. On the procedure: as §1
CH1, 41M human epithelial ovarian cancer

The test system of a further data set is ADJ/PC6 tumour. Kind of data set: Antitumour activity towards the ADJ/PC6 tumour in mice. The class given is in vivo. As to conditions: for % Inhibition (Tumour wt as % of Control Value): 5 consecutive days, day 30; for T.I.: Example 7 (repeat of Example 6); for ED90: Mus musculus. From the text: (§3) The anti-tumour activity of CB 7646 prepared in accordance with Example 1 against ADJ/PC6 tumour in mice were compared with that of trimelamol. An implant of 1 mm^3 of tumour was made on day 1. On day 20, animals bearing tumours of comparative size were placed into groups of 4 and treated with drug on 5 consecutive days, and then left until day 30. Tumours from the treated and controls were dissected and weighed as a measure of tumour growth. Compounds were given in 5% DMSO/dextrose.
(§4) Example 6 was repeated to obtain more precise LD50 values.

The next data set can be described thus: Lethality (LD50) in mice. As to conditions: mouse, in vivo.
Description: as §3, §4

Another data set has as its system PXN65 Xenografts. Kind of data set: In vivo activity against PXN65 ovarian cancer xenografts. Also on record: species or system mice. As to conditions: for time to tumour regression: treated mice. As for the experimental part:
CB7646 was tested in vivo against ovarian cancer xenografts of the PXN65 cell line transplanted into mice, substantially in accordance with Harrap et al, Annals of Oncology, 1990, 1;65-76. PXN65 is a cisplatin-sensitive line.

For data set [5] the following is noted: Judson et al 1989, 1991; cited from earlier work.
For a further data set, the system named is ovarian carcinomas. As to conditions: cited from earlier work.
Data set [6] in a line: Stability in solution (half-life by HPLC).
Description: Compounds were dissolved in DMSO to a concentration of 50 mM. Aliquots were then dispersed into the appropriate medium to give a final concentration of 100 μM in a volume of about 10 ml. […] (to simulate room temperature) or at 37° C. in water, 0.9% NaCl or 5% dextrose. Aliquots were removed from each preparation at intervals to assess their stability (i.e. half-life, T^1/2) which was measured using HPLC analysis. This entailed an isocratic elution using a mobile phase comprising 10% acetonitrile, 90% 0.05M ammonium bicarbonate. The 15 cm column was packed with C8 octyl Spherisorb material. The column was encased in a cooling cabinet which was maintained at 14°-17° C. Standards of freshly prepared solutions were run throughout the analysis period by way of controls.
T^1/2 measurements were read from a semi-logarithmic plot of peak area (y) versus time (x).
Where [7] appears, read: WALKER 256, MTT, continual drug exposure, parenthesis = standard deviation or ± values, read-out: IC50.
The mark [8] stands for this setting: MTT, continual drug exposure, parenthesis = standard deviation or ± values, read-out: IC50.
[9] abbreviates: ADJ/PC6, Example 7 (repeat of Example 6).
The mark [10] stands for this setting: Example 7 (repeat of Example 6).

Like-named read-outs stand apart in the source and are kept apart here. Some results are limits rather than exact numbers.

For orientation: LD50 means the dose expected to kill half of the subjects tested. Read a low LD50 as greater toxicity. As a reminder, the half-life is the time needed for the level to fall by half in the phase considered.

As to `CN(CO)c1nc(N(C)CO)nc(N(C)CO)n1` [Trimelamol, 2,4,6-tris{(hydroxymethyl) (methyl)amino}-1,3,5-triazine, reference compound], the “Dimer/polymer formation (precipitate)” value in data set [1] is reported as “formed a heavy precipitate”. Also, the IC50 was found to be 12.9 µM with PC6 murine plasmacytoma, 9.4 µM in data set [2] (setting [7]), 8.5 µM in data set [3] (setting [8]) and 23.4 µM in data set [4]. The “% Inhibition (Tumour wt as % of Control Value)” value is reported as 0% with ADJ/PC6 tumour (3.25 mg/kg); 18.2% with ADJ/PC6 tumour (6.25 mg/kg); 13.7% in the data set with ADJ/PC6 tumour (12.5 mg/kg); 45.5% in the data set with ADJ/PC6 tumour (25 mg/kg); 83.9% in the data set with ADJ/PC6 tumour (50 mg/kg); 96.0% in the data set with ADJ/PC6 tumour (100 mg/kg). The T.I. in the data set with ADJ/PC6 tumour amounted to 2.9. Further, in the data set on ADJ/PC6 tumour (setting [9]), the ED90 came to 24 mg/kg. Besides, the LD50 in the data set “Lethality (LD50) in mice” (setting [10]) was 70 mg/kg. Also, the Deaths turned out to be 0 in the data set on PXN65 Xenografts (15 mg/kg, 20 doses) and 0 with PXN65 Xenografts (30 mg/kg, 5 doses). Moreover, the “GD (Growth delay)” value with PXN65 Xenografts (15 mg/kg, 20 doses) is above 170 days; with PXN65 Xenografts (30 mg/kg, 5 doses) it was above 273 days. Also, the “time to tumour regression” value with PXN65 Xenografts (PXN65 xenografts) was at most 28 days. Further, in [5], the “polymerisation during Phase I and II clinical trials” value is listed as “proved problematic”. Further, the “half-life of trimelamol activity in humans” value in the data set with ovarian carcinomas (humans, Judson et al 1989) is recorded as “short”. The clinical activity result in the data set with ovarian carcinomas (particularly against ovarian carcinomas) is recorded as “clinically active”. Moreover, the half-life at 100 µM in data set [6] (0.9% nacl, pH 4.9) was determined as 4.55 h; in data set [6] (5% dextrose, pH 4), 5.8 h; in data set [6] (deionised water, pH 7.5), 2 h.

As to `CNc1nc(N(C)CO)nc(N(C)CO)n1` [CB7646, 2,4-Bis[(hydroxymethyl) (methyl)amino]6-methylamino-1,3,5-triazine], the “Dimer/polymer formation (precipitate)” value in [1] is on record as “did not form a precipitate”. Besides, the IC50 in the data set with PC6 murine plasmacytoma is 25.1 µM; in data set [2] (setting [7]) it was 10.7 µM; in data set [2] (Walker 256, CB7646 prepared by recrystallisation method of Example 2, read-out: IC50 (repeat, recrystallised preparation)) it was 10.5 µM; in data set [3] (CB7646 prepared by recrystallisation method of Example 2, read-out: IC50 (repeat, recrystallised preparation)), 16.5 µM; in [3] (setting [8]), 14.7 µM; in data set [4] it was 35.8 µM. Also, the “% Inhibition (Tumour wt as % of Control Value)” value is listed as 5.6% in the data set with ADJ/PC6 tumour (3.25 mg/kg); -1.0% in the data set on ADJ/PC6 tumour (6.25 mg/kg); 13.7% in the data set on ADJ/PC6 tumour (12.5 mg/kg); 5.6% in the data set with ADJ/PC6 tumour (25 mg/kg); 76.8% in the data set with ADJ/PC6 tumour (50 mg/kg); 98.0% in the data set on ADJ/PC6 tumour (100 mg/kg). Besides, the “Therapeutic Index (TI)” value in the data set with ADJ/PC6 tumour (ADJ/PC6 tumour, Example 6) is listed as above 1.4. In the data set with ADJ/PC6 tumour, the T.I. came out at 4.6. Moreover, the ED90 turned out to be 74 mg/kg in the data set on ADJ/PC6 tumour (ADJ/PC6, ADJ/PC6 tumour, Example 6) and 31 mg/kg in the data set with ADJ/PC6 tumour (setting [9]). The LD50 in “Lethality (LD50) in mice” (Example 6) was above 100 mg/kg; in the data set “Lethality (LD50) in mice” (setting [10]), 142 mg/kg. In the data set on PXN65 Xenografts (15 mg/kg, 20 doses), the Deaths is 0. Further, in the data set with PXN65 Xenografts (15 mg/kg, 20 doses), the “GD (Growth delay)” value is above 140 days. Further, the “efficacy (summary)” value with PXN65 Xenografts (PXN65 xenografts, relative to trimelamol) is listed as “comparable efficacy to trimelamol”. In addition, in the data set on PXN65 Xenografts (PXN65 xenografts), the “time to tumour regression” value is reported as at most 28 days. The half-life at 100 µM in [6] (0.9% nacl, pH 5, T^1/2, 0.9% NaCl, pH 5.0, r.t.) was 16 h; in [6] (5% dextrose, pH 4, T^1/2, 5% Dextrose, pH 4.0, r.t.) it was 22 h; in data set [6] (deionised water, pH 7.5, T^1/2, Deionised water, pH 7.5, r.t.), 18 h; in data set [6] (deionised water, pH 7.5, T^1/2, deionised water, pH 7.5, 37 °C) it was 3 h. Besides, the “stability (summary of Table 1)” value in data set [6] (relative to trimelamol) is “superior stability”.

`OCN(CC(F)(F)F)c1nc(NCC(F)(F)F)nc(N(CO)CC(F)(F)F)n1` [CB7683, 2,4-Bis[(hydroxymethyl)(2,2,2 trifluoroethyl)amino]-6-(2,2,2-trifluoroethyl)amino-1,3,5-triazine]: the IC50 in the data set with PC6 murine plasmacytoma was 31.6 µM; in data set [3] (setting [8]), 8.9 µM; in data set [4], 40.9 µM.

These data come from patent US5854244A, “Melamine derivatives for use in the treatment of cancer” (priority 1992, dated 1998).
